10 molecules from US7442715B2, “Thiazole derivatives” (Astellas Pharma Inc., priority 2003, dated 2008) can be followed below.

One data set has as its target T1, Rat plasma SSAO (Rattus norvegicus, UniProt O08590).
T1 construct: The enzyme suspension prepared from blood plasma was pre-incubated with Compound A; from tissue; host or cells: rat blood plasma
T1 sequence (O08590 29-763 limits assumed): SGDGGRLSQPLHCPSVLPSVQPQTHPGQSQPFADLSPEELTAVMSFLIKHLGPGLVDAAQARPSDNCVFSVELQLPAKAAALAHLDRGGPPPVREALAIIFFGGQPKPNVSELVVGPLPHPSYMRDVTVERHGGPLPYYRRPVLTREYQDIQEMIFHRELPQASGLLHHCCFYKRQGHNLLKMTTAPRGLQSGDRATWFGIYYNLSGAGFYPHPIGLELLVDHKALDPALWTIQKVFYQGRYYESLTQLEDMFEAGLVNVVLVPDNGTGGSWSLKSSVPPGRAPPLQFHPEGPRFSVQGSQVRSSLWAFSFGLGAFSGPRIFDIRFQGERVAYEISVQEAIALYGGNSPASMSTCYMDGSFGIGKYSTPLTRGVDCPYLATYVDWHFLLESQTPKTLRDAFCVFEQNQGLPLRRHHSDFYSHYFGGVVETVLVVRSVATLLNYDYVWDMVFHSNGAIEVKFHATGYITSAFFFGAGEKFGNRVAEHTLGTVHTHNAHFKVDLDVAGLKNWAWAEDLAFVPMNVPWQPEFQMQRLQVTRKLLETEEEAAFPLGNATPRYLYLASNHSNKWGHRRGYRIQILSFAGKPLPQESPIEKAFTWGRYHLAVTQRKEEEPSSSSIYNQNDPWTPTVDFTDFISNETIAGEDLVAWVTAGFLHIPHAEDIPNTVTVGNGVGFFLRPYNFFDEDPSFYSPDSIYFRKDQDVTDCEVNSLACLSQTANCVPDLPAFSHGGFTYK
Kind of data set: VAP-1 enzyme (SSAO) activity in rat plasma, radiochemical-enzyme assay with 14C-benzylamine. The class given is biochemical. As to the method: (§1) VAP-1 enzyme (SSAO) activity in both human and rat plasma was determined by a radiochemical-enzyme assay using ^14C-benzylamine as artificial substrate. The enzyme suspension prepared from blood plasma was pre-incubated with Compound A in 96-well microplate at room temperature for 30 min. The enzyme suspension was then incubated with ^14C-benzylamine (2×10^−5 mol/l final concentration) in a final volume of 50 μl at 37° C. for 1 hour. The enzyme reaction was terminated by adding 2 mol/l (50 μl) citric acid. The oxidized products were directly extracted into a 200 μl toluene scintillator, and its radioactivity was measured by a scintillation spectrometer. Monoamine oxidase (MAO) and diamine oxidase (DAO, histaminase) activities were also determined by similar method using ^14C-phenylethylamine and ^14C-putrescine as substrate, respectively. Cloned DAO from cDNA libraries was used in human DAO assay. Inhibition activity was expressed as IC50 (μmol/l) value.

Another data set addresses T2, Human plasma SSAO (Homo sapiens, UniProt Q16853).
T2 construct: The enzyme suspension prepared from blood plasma was pre-incubated with Compound A; from tissue; host or cells: human blood plasma
T2 sequence (Q16853 29-763 limits assumed): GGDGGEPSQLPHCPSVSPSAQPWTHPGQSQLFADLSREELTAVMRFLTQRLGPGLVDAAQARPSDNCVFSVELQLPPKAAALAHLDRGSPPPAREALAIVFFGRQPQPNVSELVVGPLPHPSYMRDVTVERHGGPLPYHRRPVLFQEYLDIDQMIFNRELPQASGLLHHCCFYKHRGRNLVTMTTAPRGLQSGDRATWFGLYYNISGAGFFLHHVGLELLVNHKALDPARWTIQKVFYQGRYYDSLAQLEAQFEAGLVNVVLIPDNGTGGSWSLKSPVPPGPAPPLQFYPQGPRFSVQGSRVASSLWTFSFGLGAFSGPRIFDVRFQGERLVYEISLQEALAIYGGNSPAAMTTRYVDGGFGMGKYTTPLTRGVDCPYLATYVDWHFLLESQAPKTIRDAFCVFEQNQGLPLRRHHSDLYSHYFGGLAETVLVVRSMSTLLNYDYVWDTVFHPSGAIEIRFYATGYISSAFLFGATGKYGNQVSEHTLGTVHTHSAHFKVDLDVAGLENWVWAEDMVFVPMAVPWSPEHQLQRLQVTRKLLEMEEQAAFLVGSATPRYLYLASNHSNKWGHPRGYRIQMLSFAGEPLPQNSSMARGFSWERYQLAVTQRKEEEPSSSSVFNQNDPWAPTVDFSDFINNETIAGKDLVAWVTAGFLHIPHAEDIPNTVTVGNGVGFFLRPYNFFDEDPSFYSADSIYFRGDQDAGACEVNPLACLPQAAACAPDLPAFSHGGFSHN
Kind of data set: VAP-1 enzyme (SSAO) activity in human plasma, radiochemical-enzyme assay with 14C-benzylamine. The class given is biochemical. As to the method: as §1

Another data set addresses T3, plasma SSAO (Rattus norvegicus, UniProt O08590).
T3 construct: from tissue; host or cells: plasma of STZ-induced diabetic rats
T3 sequence (O08590 29-763 limits assumed): T1 sequence (O08590 29-763 limits assumed)
Kind of data set: Plasma SSAO activity in STZ-induced diabetic rats after treatment. The class given is in vivo. As to the method:
Diabetes in rat was induced with an intraperitoneal (i.p.) injection of 65 mg/ml/kg of streptozotocin (STZ) in 2 mmol/l citrate buffer (pH 4.5) after a 20-h fast. At the same time control rat were injected with an equal volume of 2 mmol/l citrate buffer. Plasma glucose level was checked by a calorimetric method. At day 3 of STZ treatment, the rat was diagnosed with diabetes showing a plasma glucose level of 350 mg/dl.
The treatment of Compound A was given daily from 2 weeks after STZ treatment for 2 weeks. At 24 hrs after final treatment of Compound A, the vascular permeability in oculus was investigated based on the leakage of dye into the vitreous 30 min after intravenous injection of fluorescein solution (40 mg/ml/kg). Permeability was expressed as vitreous/plasma ratio of fluorescein concentration measured by a fluorophotometer. At the same time, the plasma SSAO activity was checked by the radiochemical-enzyme assay using ^14C-benzylamine (2×10^−5 mol/l final concentration) as substrate.

Counter-ions that a name gives are not always drawn.

As a reminder, the melting point is the temperature of the solid-liquid transition.

Molecule `CC(=O)Nc1nc(CCc2ccc(NC(=N)N)cc2)c(C(=O)NCc2ccc([N+](=O)[O-])cc2)s1.Cl` displayed a melting point of 138 to 140 °C.
Consider `CC(=O)Nc1nc(CCc2ccc(C(=N)N)cc2)cs1.Cl`, for which the melting point lay in the range of 229.5 to 231 °C.
Still for that read-out and setting: for `CC(=O)Nc1nc(CCc2ccc(CC(=N)N)cc2)cs1` (as salt: hydrochloride) [Production Example 59, N-(4-{2-[4-(2-amino-2-iminoethyl)phenyl]ethyl}-1,3-thiazol-2-yl)acetamide] the value was 190.5 to 192 °C.
With `CC(=O)Nc1nc(CCc2ccc(NC(=N)N)cc2)cs1` [Compound A, N-{4-[2-(4-{[amino(imino)methyl]amino}phenyl)ethyl]-1,3-thiazol-2-yl}acetamide], the “Inhibition of enzyme activity of rat plasma SSAO (in words)” value at Rat plasma SSAO was “completely inhibited”. For the same molecule, the “Inhibition of enzyme activity of human plasma SSAO (in words)” value at Human plasma SSAO was “completely inhibited”. Besides, the “Plasma SSAO activity” value on plasma SSAO (STZ diabetic rats, daily treatment for 2 weeks from 2 weeks after STZ, 14C-benzylamine 2×10^−5 mol/l, mean±S.E.M., 10 rats) was 2.51 ± 0.26 pmol/min/mL. Moreover, the “Effect on increased plasma SSAO activity in diabetic rats (in words)” value on plasma SSAO (diabetic rats at 4 weeks after STZ treatment) is recorded as “dose-dependent inhibition of the increased plasma SSAO activity”.
As for `CC(=O)Nc1nc(CCc2ccc(NC3=NCCS3)cc2)cs1` [Production Example 2, N-(4-(2-(4-(4,5-dihydro-1,3-thiazol-2-ylamino)phenyl)ethyl)-1,3-thiazol-2-yl)acetamide], the melting point is 218 to 219.5 °C.
Still for that read-out and setting: for `CC(=O)Nc1nc(CCc2ccc(CON)cc2)cs1` [Production Example 16, N-[4-(2-{4-[(aminooxy)methyl]phenyl}ethyl)-1,3-thiazol-2-yl]acetamide] the value was 130 to 130.5 °C; for `CC(=O)Nc1nc(CCc2ccc(NC(=N)N)cc2)c(Cc2ccc(S(C)(=O)=O)cc2)s1` [Production Example 48, N-{4-[2-(4-{[amino(imino)methyl]amino}phenyl)ethyl]-5-[4-(methylsulfonyl)benzyl]-1,3-thiazol-2-yl}acetamide], 228 to 229.5 °C.
On to `CC(=N)Nc1ccc(CCc2nc(NC(C)=O)sc2Cc2ccc(S(C)(=O)=O)cc2)cc1` [Production Example 56, N-{4-{2-[4-(ethanimidoylamino)phenyl]ethyl}-5-[4-(methylsulfonyl)benzyl]-1,3-thiazol-2-yl}acetamide], for which the melting point was in the range of 81.5 to 83 °C.
The molecule `CC(=O)Nc1nc(CCc2ccc(NC(=N)NN)cc2)cs1` [Production Example 58, N-{4-[2-(4-{[hydrazino(imino)methyl]amino}phenyl)ethyl]-1,3-thiazol-2-yl}acetamide] had a melting point of 216.5 to 218 °C.
Same read-out and setting: for `CC(=O)Nc1nc(CCc2ccc(C(=O)NC(=N)N)cc2)c(Cc2ccc(S(C)(=O)=O)cc2)s1` [Production Example 106, 4-(2-{2-(acetylamino)-5-[4-(methylsulfonyl)benzyl]-1,3-thiazol-4-yl}ethyl)-N-[amino(imino)methyl]benzamide] the value was 108 to 109.5 °C.
